Tests used:
[1] = target: T1, 5-hydroxytryptamine receptor 6 (Homo sapiens, UniProt P50406); assay: Displacement of [3H]LSD binding to cloned human 5-hydroxytryptamine 6 receptor expressed in HEK cells; format: cell-based, HEK293
[2] = target: T1, 5-hydroxytryptamine receptor 6; assay: Displacement of [3H]LSD binding to cloned human 5-hydroxytryptamine 6 receptor stably expressed in HEK cells; format: cell-based, HEK293
[3] = target: T2, 5-hydroxytryptamine receptor 1A (Rattus norvegicus, UniProt P19327); assay: Inhibitory activity against 5-hydroxytryptamine 1A receptor in rat
T2 sequence (P19327 whole entry): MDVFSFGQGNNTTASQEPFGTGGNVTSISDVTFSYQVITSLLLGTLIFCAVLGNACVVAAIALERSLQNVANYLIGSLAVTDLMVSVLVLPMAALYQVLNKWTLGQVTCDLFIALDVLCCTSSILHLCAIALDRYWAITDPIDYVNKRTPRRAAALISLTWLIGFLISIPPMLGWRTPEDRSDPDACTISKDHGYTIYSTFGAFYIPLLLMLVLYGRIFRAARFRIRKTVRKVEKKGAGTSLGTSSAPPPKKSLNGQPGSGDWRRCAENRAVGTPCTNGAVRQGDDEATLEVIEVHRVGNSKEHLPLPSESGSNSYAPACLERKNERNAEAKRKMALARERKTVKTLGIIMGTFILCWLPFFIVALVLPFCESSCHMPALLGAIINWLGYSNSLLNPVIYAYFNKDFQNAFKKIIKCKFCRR

[4] = target: 5-hydroxytryptamine receptor 1B (Rattus norvegicus, UniProt P28564); assay: Inhibitory activity against 5-hydroxytryptamine 1B receptor in rat
[5] = target: T1, 5-hydroxytryptamine receptor 6; assay: Inhibitory activity against 5-hydroxytryptamine 6 receptor in human
[6] = target: 5-hydroxytryptamine receptor 7 (Homo sapiens, UniProt P34969); assay: Inhibitory activity against 5-hydroxytryptamine 7 receptor in human
[7] = target: 5-hydroxytryptamine receptor 2A (Homo sapiens, UniProt P28223); assay: Inhibitory activity against 5-hydroxytryptamine 2A receptor in human
[8] = target: 5-hydroxytryptamine receptor 4 (Cavia porcellus, UniProt O70528); assay: Inhibitory activity against 5-hydroxytryptamine 4 receptor in guinea pig
[9] = Concentration to stimulate the cAMP production in BHK cells; format: functional, cell-based; details: Homo sapiens
[10] = target: T1, 5-hydroxytryptamine receptor 6; assay: Intrinsic activity (IA) at the 5-HT6 receptor determined by measuring their cAMP production in BHK cells and compared to the effect elicited by 5-HT; format: functional, cell-based; details: Mesocricetus auratus
[11] = target: 5-hydroxytryptamine receptor 3A (Mus musculus) (UniProt P23979); assay: Inhibitory activity against 5-hydroxytryptamine 3 receptor expressed in NG 108 cells
[12] = target: T3, 5-hydroxytryptamine receptor 2C (Homo sapiens, UniProt P28335); assay: Inhibitory activity against 5-hydroxytryptamine 2C receptor in human
T3 sequence (P28335 whole entry): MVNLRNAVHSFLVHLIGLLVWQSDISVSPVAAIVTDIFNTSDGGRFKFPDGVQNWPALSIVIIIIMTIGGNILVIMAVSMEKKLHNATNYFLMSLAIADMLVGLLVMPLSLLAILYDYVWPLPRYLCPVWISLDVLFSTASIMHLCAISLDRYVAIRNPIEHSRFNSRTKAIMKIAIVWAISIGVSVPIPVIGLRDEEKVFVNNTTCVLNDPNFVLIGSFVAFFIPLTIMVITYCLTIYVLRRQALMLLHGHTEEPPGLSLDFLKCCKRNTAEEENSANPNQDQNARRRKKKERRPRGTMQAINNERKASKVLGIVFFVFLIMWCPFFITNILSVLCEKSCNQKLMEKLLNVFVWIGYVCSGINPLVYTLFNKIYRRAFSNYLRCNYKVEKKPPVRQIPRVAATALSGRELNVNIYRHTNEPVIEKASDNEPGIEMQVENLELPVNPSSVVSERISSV

[13] = target: T1, 5-hydroxytryptamine receptor 6; assay: Displacement of [3H]LSD binding to cloned h5-HT6 receptors stably expressed in HEK cells; format: cell-based, HEK293

T1 sequence (P50406 whole entry): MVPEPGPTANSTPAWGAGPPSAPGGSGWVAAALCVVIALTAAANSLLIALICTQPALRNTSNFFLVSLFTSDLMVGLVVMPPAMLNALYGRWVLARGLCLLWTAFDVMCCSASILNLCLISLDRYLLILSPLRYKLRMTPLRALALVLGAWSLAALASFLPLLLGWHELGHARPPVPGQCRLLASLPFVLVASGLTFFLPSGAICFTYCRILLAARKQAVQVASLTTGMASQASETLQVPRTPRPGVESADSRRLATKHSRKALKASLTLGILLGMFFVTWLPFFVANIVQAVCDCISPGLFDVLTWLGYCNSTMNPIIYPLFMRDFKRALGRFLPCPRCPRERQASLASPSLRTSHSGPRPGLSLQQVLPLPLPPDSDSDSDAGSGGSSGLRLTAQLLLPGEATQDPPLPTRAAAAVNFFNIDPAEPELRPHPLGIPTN
Sequence of 5-hydroxytryptamine receptor 7 (P34969 whole entry): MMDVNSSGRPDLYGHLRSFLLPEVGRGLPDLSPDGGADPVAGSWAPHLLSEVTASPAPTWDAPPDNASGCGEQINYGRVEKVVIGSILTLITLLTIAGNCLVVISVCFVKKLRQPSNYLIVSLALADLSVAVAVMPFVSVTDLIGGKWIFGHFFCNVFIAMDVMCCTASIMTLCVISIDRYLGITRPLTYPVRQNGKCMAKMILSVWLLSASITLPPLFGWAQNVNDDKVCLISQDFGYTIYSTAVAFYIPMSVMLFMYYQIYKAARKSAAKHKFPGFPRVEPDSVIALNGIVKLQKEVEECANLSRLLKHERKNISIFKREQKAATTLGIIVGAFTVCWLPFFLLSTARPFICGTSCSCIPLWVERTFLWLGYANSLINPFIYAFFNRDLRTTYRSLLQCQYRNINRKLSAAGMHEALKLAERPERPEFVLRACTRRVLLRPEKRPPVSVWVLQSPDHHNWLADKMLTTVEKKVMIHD
Sequence of 5-hydroxytryptamine receptor 2A (P28223 whole entry): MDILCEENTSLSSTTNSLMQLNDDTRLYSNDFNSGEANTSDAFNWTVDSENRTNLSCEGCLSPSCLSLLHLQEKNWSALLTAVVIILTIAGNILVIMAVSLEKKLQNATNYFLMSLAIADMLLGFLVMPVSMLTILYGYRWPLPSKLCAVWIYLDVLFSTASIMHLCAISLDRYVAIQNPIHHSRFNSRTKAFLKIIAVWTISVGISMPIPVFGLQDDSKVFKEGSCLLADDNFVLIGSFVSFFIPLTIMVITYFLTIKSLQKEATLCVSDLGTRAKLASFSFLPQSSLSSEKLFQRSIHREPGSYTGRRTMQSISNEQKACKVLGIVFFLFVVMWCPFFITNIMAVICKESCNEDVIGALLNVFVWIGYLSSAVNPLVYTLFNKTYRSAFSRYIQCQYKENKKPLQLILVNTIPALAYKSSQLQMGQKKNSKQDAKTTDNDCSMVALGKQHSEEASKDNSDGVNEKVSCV
Sequence of 5-hydroxytryptamine receptor 4 (O70528 whole entry): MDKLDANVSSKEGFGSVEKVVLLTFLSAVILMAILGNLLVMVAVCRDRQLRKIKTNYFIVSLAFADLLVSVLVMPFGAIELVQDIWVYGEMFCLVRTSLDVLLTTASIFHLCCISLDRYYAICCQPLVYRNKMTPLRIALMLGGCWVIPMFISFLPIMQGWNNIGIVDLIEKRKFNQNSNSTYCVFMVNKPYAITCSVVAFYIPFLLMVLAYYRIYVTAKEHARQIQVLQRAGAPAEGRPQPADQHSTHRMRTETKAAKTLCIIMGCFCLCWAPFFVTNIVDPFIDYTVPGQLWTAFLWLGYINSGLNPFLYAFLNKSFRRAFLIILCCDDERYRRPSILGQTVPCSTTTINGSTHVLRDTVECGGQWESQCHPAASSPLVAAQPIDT
Sequence of 5-hydroxytryptamine receptor 3A (Mus musculus) (P23979 whole entry, looked up): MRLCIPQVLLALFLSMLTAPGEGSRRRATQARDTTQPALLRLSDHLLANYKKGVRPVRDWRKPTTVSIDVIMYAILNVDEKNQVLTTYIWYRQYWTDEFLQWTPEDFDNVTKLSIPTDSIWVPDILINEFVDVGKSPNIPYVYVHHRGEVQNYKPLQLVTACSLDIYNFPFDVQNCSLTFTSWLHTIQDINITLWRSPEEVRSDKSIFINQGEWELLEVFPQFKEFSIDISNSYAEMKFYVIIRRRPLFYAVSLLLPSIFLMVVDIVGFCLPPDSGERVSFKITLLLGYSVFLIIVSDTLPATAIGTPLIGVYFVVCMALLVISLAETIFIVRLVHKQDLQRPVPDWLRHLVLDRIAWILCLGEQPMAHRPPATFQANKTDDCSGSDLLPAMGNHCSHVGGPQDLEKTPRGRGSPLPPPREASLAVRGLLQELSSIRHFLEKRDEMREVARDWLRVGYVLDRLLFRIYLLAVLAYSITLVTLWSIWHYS
Sequence of 5-hydroxytryptamine receptor 1B (P28564 whole entry): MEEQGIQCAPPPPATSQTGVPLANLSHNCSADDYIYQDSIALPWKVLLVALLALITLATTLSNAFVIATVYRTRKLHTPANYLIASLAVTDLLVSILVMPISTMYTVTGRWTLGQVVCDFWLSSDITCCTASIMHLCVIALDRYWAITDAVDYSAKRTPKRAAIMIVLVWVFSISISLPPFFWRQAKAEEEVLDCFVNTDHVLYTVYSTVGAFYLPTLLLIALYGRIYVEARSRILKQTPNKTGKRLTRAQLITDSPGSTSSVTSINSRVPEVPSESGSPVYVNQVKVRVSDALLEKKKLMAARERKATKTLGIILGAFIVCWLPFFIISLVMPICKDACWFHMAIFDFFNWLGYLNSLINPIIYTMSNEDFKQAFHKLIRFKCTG

| SMILES | IC50 [1] [nM] | EC50 [9] [nM] | IA [10] [%] | also measured |
| --- | --- | --- | --- | --- |
| CCc1[nH]c2ccc(Cl)cc2c1C1=CCN(CC)CC1 | 70 |  |  |  |
| CCc1[nH]c2ccc(OC)cc2c1CCN(C)C |  | 710 | 113 | IC50 [2]: 85 nM; IC50 [3]: > 1000 nM; IC50 [4]: > 1000 nM; IC50 [5]: 85 nM; IC50 [6]: 1500 nM; IC50 [7]: 620 nM; IC50 [8]: 44 nM; IC50 [11]: > 1000 nM |
| C1=C(c2c(-c3ccccc3)[nH]c3ccccc23)CCNC1 | 2 |  |  |  |
| Cc1[nH]c2ccc(Cl)cc2c1C1=CCNCC1 |  | 1 | 92 | IC50 [3]: 660 nM; IC50 [4]: 180 nM; IC50 [6]: 3000 nM; IC50 [7]: 240 nM; IC50 [12]: 450 nM; IC50 [8]: 620 nM; IC50 [11]: 34 nM |
| CCN1CC=C(c2c(C)[nH]c3ccc(Cl)cc23)CC1 | 30 |  |  |  |
| COc1ccc2[nH]c(C)c(C3=CCNCC3)c2c1 | 80 | 5.8 | 100 | IC50 [3]: 430 nM; IC50 [4]: 310 nM; IC50 [5]: 80 nM; IC50 [6]: 9800 nM; IC50 [7]: > 1000 nM; IC50 [12]: > 1000 nM; IC50 [8]: 9800 nM; IC50 [11]: > 1000 nM |
| Cc1[nH]c2ccc(Cl)cc2c1C1=CC2CCC(C1)N2C (stereo not given) | 40 | 10000 | 75 |  |
| CC(C)c1[nH]c2ccc(Cl)cc2c1C1=CCNCC1 | 100 |  |  |  |
| Cc1[nH]c2ccc(Cl)cc2c1CCN(C)C | 40 | 16 | 53 |  |
| Cc1[nH]c2ccc(Cl)cc2c1C1=CCN(C)CC1 | 10 | 2.9 | 152 |  |
| CCCCN1CC=C(c2c(C)[nH]c3ccc(Cl)cc23)CC1 | 50 |  |  |  |
| CCc1[nH]c2ccc(OC)cc2c1C1=CCNCC1 |  | 7.9 | 100 | IC50 [13]: 90 nM |
| CCCc1[nH]c2ccc(Cl)cc2c1C1=CCNCC1 | 40 |  |  |  |
| COc1ccc2[nH]cc(C3=CCNCC3)c2c1 [RU-24969] | 79 | 200 | 55 |  |
| CCc1[nH]c2ccc(OC)cc2c1C1CCNCC1 |  |  |  | IC50 [13]: 300 nM |
| CCCN1CC=C(c2c(C)[nH]c3ccc(Cl)cc23)CC1 | 60 |  |  |  |
| CCc1[nH]c2ccc(Cl)cc2c1C1=CCNCC1 | 30 |  |  |  |
| Cc1[nH]c2ccc(Cl)cc2c1C1=CCN(Cc2ccccc2)CC1 | 600 |  |  |  |

— ChEMBL document CHEMBL1141036, “2-Alkyl-3-(1,2,3,6-tetrahydropyridin-4-yl)-1H-indoles as novel 5-HT6 receptor agonists” (Bioorg Med Chem Lett, 2005)
